PubChem BioAssay (NCI)
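Test compounds were applied to cells in 96-well plates for 48 hours at 5 doses. TGI: concentration producing complete growth inhibition.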 Where a SMILES comes first, the peptide text is derived from it. [ ]: non-standard residue; d: D form. pGlu = O=C1CC[CH](C(=O)O)N1

Legend:
Experiment in all cases: DTP human tumour cell line panel, 48 h
SR leukemia = test system: SR leukemia
IGROV1 ovarian = test system: IGROV1 ovarian
EKVX NSCLC = test system: EKVX NSCLC
BT-549 breast = test system: BT-549 breast
MALME-3M melanoma = test system: MALME-3M melanoma
SNB-75 CNS = test system: SNB-75 CNS
COLO 205 colon = test system: COLO 205 colon
OVCAR-3 ovarian = test system: OVCAR-3 ovarian
SNB-19 CNS = test system: SNB-19 CNS
SK-MEL-5 melanoma = test system: SK-MEL-5 melanoma
MOLT-4 leukemia = test system: MOLT-4 leukemia
MCF7 breast = test system: MCF7 breast
HT29 colon = test system: HT29 colon
TK-10 renal = test system: TK-10 renal
SF-295 CNS = test system: SF-295 CNS
UO-31 renal = test system: UO-31 renal
HCT-116 colon = test system: HCT-116 colon
OVCAR-4 ovarian = test system: OVCAR-4 ovarian
UACC-257 melanoma = test system: UACC-257 melanoma
NCI-H226 lung = test system: NCI-H226 lung
U251 CNS = test system: U251 CNS
T-47D breast = test system: T-47D breast
OVCAR-5 ovarian = test system: OVCAR-5 ovarian
A498 renal = test system: A498 renal
MDA-MB-231 breast = test system: MDA-MB-231 breast
SK-OV-3 ovarian = test system: SK-OV-3 ovarian
PC-3 prostate = test system: PC-3 prostate
SF-268 CNS = test system: SF-268 CNS
HCC-2998 colon = test system: HCC-2998 colon
SN12C renal = test system: SN12C renal
786-0 renal = test system: 786-0 renal
ACHN renal = test system: ACHN renal
CCRF-CEM leukemia = test system: CCRF-CEM leukemia
K-562 leukemia = test system: K-562 leukemia
SK-MEL-28 melanoma = test system: SK-MEL-28 melanoma
SF-539 CNS = test system: SF-539 CNS
SW-620 colon = test system: SW-620 colon
NCI-H522 lung = test system: NCI-H522 lung
NCI-H23 lung = test system: NCI-H23 lung
MDA-MB-435 = test system: MDA-MB-435
KM12 colon = test system: KM12 colon
HL-60(TB) leukemia = test system: HL-60(TB) leukemia
MDA-N = test system: MDA-N
A549 NSCLC = test system: A549 NSCLC
M14 melanoma = test system: M14 melanoma
HOP-92 NSCLC = test system: HOP-92 NSCLC
UACC-62 melanoma = test system: UACC-62 melanoma
HS 578T breast = test system: HS 578T breast
OVCAR-8 ovarian = test system: OVCAR-8 ovarian
NCI-H460 lung = test system: NCI-H460 lung
DU-145 prostate = test system: DU-145 prostate
CAKI-1 renal = test system: CAKI-1 renal
HOP-62 NSCLC = test system: HOP-62 NSCLC
RPMI-8226 leukemia = test system: RPMI-8226 leukemia
LOX IMVI melanoma = test system: LOX IMVI melanoma
RXF 393 renal = test system: RXF 393 renal

Measured: TGI

CC1C2CC(CC2N)C1(C)C (stereo not drawn)
not listed: RPMI-8226 leukemia | LOX IMVI melanoma | RXF 393 renal
> 100 µM: all other assays above

CC(NC(=O)C(Cc1cnc[nH]1)NC(=O)C1CCC(=O)N1)C(N)=O (stereo not drawn) ([pGlu]-His-Ala-NH2; configuration not given here)
not listed: OVCAR-4 ovarian | UACC-257 melanoma | A498 renal | SF-539 CNS | NCI-H522 lung | CAKI-1 renal
> 100 µM: all other assays above
